Experimental findings from PubChem BioAssay (NCI) are described below.

Some test systems named below: SF-268 CNS; HT29 colon; SF-539 CNS; SK-MEL-2 melanoma; TK-10 renal; HCC-2998 colon; SF-295 CNS; EKVX NSCLC; IGROV1 ovarian; CCRF-CEM leukemia.
Holding throughout (assay): NCI tumour cell line growth inhibition, 48 h

Several values for one entry are separate records, joined by “and”; a condition that tells them apart may be missing. Equal values may be shown once.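 These data come from cells grown in 96-well plates and exposed to compound for 48 hours at five concentrations. TGI is the concentration that stops growth completely.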

For `COc1ccc(CNc2nc(NCc3ccc(OC)cc3)nc(NC3CCCCC3)n2)cc1`, the TGI was 6.5 µM with SF-268 CNS; more than 100 µM in the test on HT29 colon; more than 100 µM in the test with SF-539 CNS; 7.86 µM in the test with SK-MEL-2 melanoma; 4.11 µM in the test with TK-10 renal; 3.74 µM in the test on HCC-2998 colon. For the same molecule, the TGI in the test with SF-295 CNS came out at 4.14 µM; in the test on EKVX NSCLC, 8.5 µM; in the test with IGROV1 ovarian, 6.22 µM.

As for `CC(C)(CN1CCCCC1)C(=O)CC(SCCS(=O)(=O)O)c1ccc(Br)cc1` (stereo not given), the TGI in the test on SF-268 CNS is 5.48 µM; with HT29 colon, 3.72 µM; with SF-539 CNS it was 3.96 µM; with SK-MEL-2 melanoma, 4.37 µM; in the test with TK-10 renal, 7.97 µM; in the test with HCC-2998 colon it was 4.55 µM. Moreover, the TGI in the test on SF-295 CNS came to 16.7 µM; in the test on EKVX NSCLC, 6.51 µM; in the test with IGROV1 ovarian, 4.56 µM.

On to `COc1cc(S(=O)(=O)Nc2nc(-c3ccc(N4C(=O)/C(=C/c5ccccc5)N=C4c4ccccc4)cc3)cs2)ccc1Cl`, for which the TGI was more than 100 µM with SF-268 CNS; more than 100 µM in the test with HT29 colon; more than 100 µM in the test on SF-539 CNS; 84.8 µM with SK-MEL-2 melanoma; more than 100 µM with TK-10 renal; more than 100 µM in the test on SF-295 CNS. For the same molecule, the TGI in the test with CCRF-CEM leukemia and in the test with IGROV1 ovarian was more than 100 µM in each case.

As for `O=C(Cn1c2ccc(Br)cc2c2nc3ccccc3nc21)NC1CCCCC1`, the TGI with SF-268 CNS, in the test on HT29 colon, with SK-MEL-2 melanoma, in the test with TK-10 renal, with HCC-2998 colon and in the test on SF-295 CNS was more than 100 µM each time. Also, in the test on IGROV1 ovarian, the TGI is more than 100 µM.

`COc1cc(C(=O)Nc2nnc(S(N)(=O)=O)s2)cc(OC)c1OC`: the TGI with SF-268 CNS, in the test with SF-539 CNS, with SK-MEL-2 melanoma, with TK-10 renal, with HCC-2998 colon and in the test on SF-295 CNS was more than 100 µM in each case. In the test with EKVX NSCLC, this molecule showed a TGI of more than 100 µM.

Regarding `Cc1ccc2ccccc2c1CC1S(=O)(=O)OCCOS1(=O)=O`, the TGI in the test on HT29 colon worked out at 27.1 µM; in the test with SK-MEL-2 melanoma it was 37.9 µM; in the test on TK-10 renal, 31.1 µM; in the test with HCC-2998 colon, 15.8 µM; with SF-295 CNS, 27.4 µM; in the test with EKVX NSCLC, 29.9 µM. In addition, the TGI with CCRF-CEM leukemia is 27.1 µM.

`CC(=O)Oc1ccc2cc(Oc3ccc(Cl)cc3)c(=O)oc2c1`: the TGI in the test on SF-268 CNS is more than 100 µM; in the test on HT29 colon, more than 100 µM; in the test with SF-539 CNS it was 82.7 µM; in the test on TK-10 renal it was more than 100 µM; in the test on HCC-2998 colon it was more than 100 µM; in the test on SF-295 CNS, 99 µM. In addition, the TGI in the test on EKVX NSCLC and in the test on IGROV1 ovarian was more than 100 µM in each case.

Consider `NC(N)=N/N=C(\c1ccc(Cl)cc1)C1CC1`, for which the TGI is more than 100 µM in the test on SF-268 CNS; 32.2 µM in the test with HT29 colon; 32.3 µM with SF-539 CNS; 34.5 µM in the test with SK-MEL-2 melanoma; 29.9 µM in the test with TK-10 renal; 19.4 µM in the test with HCC-2998 colon. Moreover, the TGI was determined as 48.3 µM in the test on SF-295 CNS, 83 µM in the test on EKVX NSCLC and 31.8 µM in the test with IGROV1 ovarian.

For `CCCCCCCCCCCCOC1C(COCCN2CCCC2)OC2OC(C)(C)OC21` (stereo not given), the TGI is 4.44 µM in the test with SF-268 CNS; 2.98 µM in the test on HT29 colon; 3.17 µM in the test with SF-539 CNS; 3.09 µM with SK-MEL-2 melanoma; 3.03 µM in the test with TK-10 renal; 3.28 µM in the test on SF-295 CNS. For the same molecule, the TGI in the test with EKVX NSCLC came to 10.2 µM; in the test with CCRF-CEM leukemia it was 5.39 µM; with IGROV1 ovarian, 3.1 µM.

As for `Brc1ccc(N2C[N+](c3ccc(Br)cc3)=NC(c3ccccc3)=N2)cc1`, the TGI in the test on SF-268 CNS is 35.8 µM and > 100 µM; in the test with HT29 colon, 27.8 µM and > 100 µM; in the test with SF-539 CNS, 29.8 µM and > 100 µM; in the test on SK-MEL-2 melanoma it was 32.6 µM and > 100 µM; with TK-10 renal, 38 µM and > 100 µM; in the test with HCC-2998 colon, 28.7 µM and > 100 µM. Further, the TGI in the test on SF-295 CNS was 29.1 µM and > 100 µM; in the test with EKVX NSCLC, 31.8 µM and > 100 µM; in the test on IGROV1 ovarian, 29.1 µM and > 100 µM.

Turning to `Cc1ncc([N+](=O)[O-])n1CCN=[N+]=[N-]`, the TGI with SF-268 CNS, in the test on HT29 colon, in the test on SF-539 CNS, in the test on SK-MEL-2 melanoma, in the test on TK-10 renal and in the test with SF-295 CNS was more than 100 µM in each case. Moreover, the TGI with EKVX NSCLC and in the test on IGROV1 ovarian was more than 100 µM throughout.

Consider `COc1cc(C2SCC(=O)N2NC(=O)c2ccc(NC(C)=O)cc2)cc(OC)c1OC` (stereo not given), for which the TGI in the test with SF-268 CNS, in the test on HT29 colon, in the test on SF-539 CNS, with SK-MEL-2 melanoma, in the test with TK-10 renal and in the test on HCC-2998 colon was more than 100 µM throughout. The TGI with SF-295 CNS, with EKVX NSCLC and with IGROV1 ovarian was more than 100 µM throughout.

Consider `Oc1ccc(-c2c3c(nc4c2CCc2ccc(Br)cc2-4)-c2cc(Br)ccc2CC3)cc1`, for which the TGI with SF-268 CNS turned out to be 39.9 µM; with SK-MEL-2 melanoma, 35 µM; with TK-10 renal, 45.4 µM; in the test with HCC-2998 colon, 40.1 µM; with SF-295 CNS, 31.7 µM; with EKVX NSCLC it was 46.1 µM. The molecule also came in with a TGI with IGROV1 ovarian of 30.7 µM.

Turning to `COC(=O)Cc1c(C2=Nc3ccccc3C2(O)CC(=O)OC)[nH]c2ccccc12` (stereo not given), the TGI with SF-268 CNS was more than 100 µM; with HT29 colon, more than 100 µM; with SF-539 CNS, 85.5 µM; with SK-MEL-2 melanoma, more than 100 µM; in the test on TK-10 renal it was more than 100 µM; in the test with SF-295 CNS it was more than 100 µM. In addition, the TGI is more than 100 µM in the test on EKVX NSCLC, 54.5 µM in the test with CCRF-CEM leukemia and more than 100 µM in the test on IGROV1 ovarian.

For `O=C(c1cccs1)N(C(=S)N1CCN(c2ccccc2)CC1)c1ccccc1`, the TGI in the test with SF-268 CNS, with HT29 colon, in the test on SF-539 CNS, in the test with SK-MEL-2 melanoma, in the test with TK-10 renal and in the test with SF-295 CNS was more than 100 µM throughout. Also, the TGI in the test with CCRF-CEM leukemia and in the test with IGROV1 ovarian was more than 100 µM each time.

`Cc1cnc(Cl)nc1C(C#N)c1nc2ccccc2n1C` (stereo not given): the TGI with SF-268 CNS was more than 100 µM; in the test with HT29 colon, more than 100 µM; with SF-539 CNS, 71.3 µM; in the test with TK-10 renal it was more than 100 µM; in the test on SF-295 CNS it was more than 100 µM; in the test on EKVX NSCLC, 57.1 µM. Moreover, the TGI in the test on IGROV1 ovarian is more than 100 µM.
